{
  "source": "patent US10751339B2",
  "about": "“Substituted aminopyrimidine compounds and methods of use” (SUNSHINE LAKE PHARMA CO., LTD., priority 2018, dated 2020)",
  "origin": "cited, not measured here",
  "key": {"[1]": {"test_system": "mouse model of rheumatoid arthritis", "details": "in vivo; cited from earlier work"}, "[2]": {"test_system": "model of systemic lupus erythematosis", "details": "in vivo; cited from earlier work"}},
  "data": [
    {"smiles": "O=C1NC(=O)/C(=C\\c2ccc3nccnc3c2)S1", "note": "[AS 605240]", "values": [
      {"measurement": "efficacy in a mouse model of rheumatoid arthritis", "setting": "[1]", "result": "efficacious"},
      {"measurement": "effect on onset of disease in a model of systemic lupus erythematosis", "setting": "[2]", "result": "delay onset of disease"}
    ]}
  ]
}
